According to patent publication US12636366B2, “Ruthenium (II) complexes and conjugates thereof for use as photosensitizer agent in photodynamic therapy” (Paris Sciences et Lettres, priority 2019, dated 2026):
Where two headings read alike, the source gives them in different places.

What was measured:
[1] = Emission of the complexes in CH3CN upon excitation at 355 nm; type: physicochemical; conditions: room temperature
Protocol: The absorption of the samples in cuvettes has been measured with a Lambda 800 UV/VIS Spectrometer (PerkinElmer Instruments) and in 96 well plates with a SpectraMax M2 Spectrometer (Molecular Devices). The emission was measured by irradiation of the sample in fluorescence quartz cuvettes (width 1 cm) using a NT342B Nd-YAG pumped optical parametric oscillator (Ekspla) at 355 nm. Luminescence was focused and collected at right angle to the excitation pathway and directed to a Princeton Instruments Acton SP-2300i monochromator equipped with 1200 g/mm grating blazed at 500 nm. As a detector a XPI-Max 4 CCD camera (Princeton Instruments) has been used.
Upon excitation at 355 nm, the emission of the complexes in CH3CN was determined. The maximum of the emission signal was measured between 600-710 nm (Table 1). […] This leads for all investigated complexes to a large Stokes shift implying minimal inference between excitation and luminescence.

[2] = Singlet oxygen measurement, indirect evaluation (RNO reporter absorbance); type: physicochemical; conditions: indirect method, excitation at 450 nm, average of three, +-10%
Protocol: For the measurement in CH3CN: The samples were prepared in an air-saturated CH3CN solution containing the complex with an absorbance of 0.1 at the irradiation wavelength, N,N-dimethyl-4-nitrosoaniline aniline (RNO, 24 μM) and imidazole (12 mM). For the measurement in PBS buffer: The samples were prepared in an air-saturated PBS solution containing the complex with an absorbance of 0.1 at the irradiation wavelength, N,N-dimethyl-4-nitrosoaniline aniline (RNO, 20 μM) and histidine (10 mM). The samples were irradiated on 96 well plates with an Atlas Photonics LUMOS BIO irradiator for different times. The absorbance of the samples was measured during these time intervals with a SpectraMax M2 Microplate Reader (Molecular Devices). The difference in absorbance (A0-A) at 420 nm for the CH3CN solution or at 440 nm a PBS buffer solution was calculated and plotted against the irradiation times. From the plot the slope of the linear regression was calculated as well as the absorbance correction factor determined. The singlet oxygen quantum yields were calculated using the same formulas as used for the direct evaluation.
Additionally, the DFT calculations were able to characterize the lowest energy absorption band as a MLCT transition with a triplet state. With this in hand, a quantitative evaluation of singlet oxygen (^1O2) was performed to assess the potential of the PSs in PDT, by two methods: 1) direct by measurement of the luminescence of ^1O2, 2) indirect by measurement of the variation in absorbance of a reporter molecule, as described above. In the first method, the efficiency of the production of ^1O2 was assessed by measuring its phosphorescence at 1270 nm. Worthy of note, the possibility of detection in this experiment is affected by its environment as well as the used setup. With the setup used in this study, we could only detect Φ(^1O2) larger than 0.20 based on a low peak-to-noise ratio. In the second method (indirect method), ^1O2 is reacting with imidazole (in CH3CN) and histidine (in PBS buffer) to a trans-annular peroxide adduct. This can further quench the absorbance of the reporter molecule p-nitrosodimethyl aniline (RNO), which has been monitored by UV/VIS spectroscopy. In both methods, the ^1O2 production has been compared with a reference molecule, namely a solution of phenalenone in CH3CN (Φ(^1O2)phenaleone=0.95)^33 and a solution of [Ru(bipy)3]Cl2 in water Φ(^1O2)Ru(bipy)3Cl2=0.22)^31. […] In comparison, the values changed drastically in an aqueous solution. […] They have untypically low Φ(^1O2) values in CH3CN (0.22-0.35) for Ru(II) polypyridyl complexes. Subsequently, the ^1O2 production was also quite low in an aqueous environment.

[3] = test system: non-cancerous retina pigmented epithelial cell line (RPE-1); assay: Dark and light cytotoxicity, resazurin cell viability assay, RPE-1; type: cell-based; conditions: for PI (IC50 in the dark/IC50 upon light irradiation): RPE-1, 480 nm
Protocol: (§1) HeLa and CT-26 cell lines were cultured in DMEM media (Gibco, Life Technologies, USA) supplemented with 10% of fetal calf serum (Gibco). U87 and U373 cell lines were cultured in MEM media with addition of 1% of MEM NEAA (non-essential aminoacids) (Gibco) and 10% of fetal calf serum. RPE-1 cells were cultured in DMEM/F-12 (Gibco) supplemented with 10% of fetal calf serum. RPE-1 stable cells lines were cultured as RPE-1 cells with addition of geneticin (0.5 mg/ml) (Gibco). All cell lines were complemented with 100 U/ml penicillin-streptomycin mixture (Gibco), and maintained in humidified atmosphere at 37° C. and 5% of CO2.
(§2) Dark and light cytotoxicity of the Ru(II) complexes was assessed by fluorometric cell viability assay using resazurin (ACROS Organics). For dark and light cytotoxicity, cells were seeded in triplicates in 96 well plates at a density of 4000 cells per well in 100 μl, 24 h prior to treatment. The medium was then replaced with increasing concentration of the tested complexes and cells were incubated for 4 h. Medium was then replaced for fresh complete medium. Cells used for light cytotoxicity experiment were exposed to: 480 nm light for 10 min, 510 nm for 40 min, 540 for 60 min or 595 nm for 120 min in a 96-well plate using a LUMOS-BIO photoreactor (Atlas Photonics). Each well was individually illuminated with a LED at constant current. After irradiation cells were kept for another 44 h in the incubator and the medium was replaced by fresh complete medium containing resazurin (0.2 mg ml^−1 final concentration). After 4 h incubation at 37° C., the fluorescence signal of the resorufin product was read by SpectraMax M5 microplate reader (ex: 540 nm em: 590 nm). IC50 values were calculated using GraphPad Prism software.
(§3) The potential of the complexes to act as PDT PSs was determined on mouse colon carcinoma cells (CT-26), human glioblastoma cells (U87 and U373), human cervical carcinoma cells (HeLa) as well as non-cancerous retina pigmented epithelial cell line (RPE-1) according to the method described above. […] Ideally, a PDT PS should be non-toxic in the dark and highly toxic upon light activation. […] The toxicity of the compounds upon light irradiation (480 nm, 10 min, 3.21 J cm^−2) was then investigated.

[4] = test system: human glioblastoma cells (U373); assay: Dark and light cytotoxicity, resazurin cell viability assay, U373; type: cell-based; conditions: for PI (IC50 in the dark/IC50 upon light irradiation): U373, 480 nm
Protocol: as §1, §2, §3

[5] = RPE-1, dark, read-out: IC50 Dark
[6] = RPE-1, light 480 nm, 10 min, 3.21 J cm^−2, read-out: IC50 Light
[7] = U373, dark, read-out: IC50 Dark
[8] = U373, light 480 nm, 10 min, 3.21 J cm^−2, read-out: IC50 Light

(2,2′-bipyridine-4,4′-carboxamide)bis(1,10-phenanthroline)ruthenium(II) hexafluorophosphate [Compound 4]
Emission λem [1]: 654 nm | Singlet oxygen quantum yield Φ(1O2), CH3CN Indirect [2]: 0.59 | Singlet oxygen quantum yield Φ(1O2), PBS indirect [2]: 0.26 | IC50 [3, 5]: > 100 µM | IC50 [3, 6]: > 100 µM | IC50 [4, 7]: > 100 µM | IC50 [4, 8]: > 100 µM

((E,E′)-4,4′-Bis(N,N′-dimethylaminovinyl)-2,2′-bipyridine)bis(4,7-diphenyl-1,10-phenanthroline)ruthenium(II) hexafluorophosphate [Compound 7]
Emission λem [1]: 694 nm | Singlet oxygen quantum yield Φ(1O2), CH3CN Indirect [2]: 0.35 | Singlet oxygen quantum yield Φ(1O2), PBS indirect [2]: 0.07 | PI (IC50 in the dark/IC50 upon light irradiation) ([3]; 10 min): >11.2 | IC50 [3, 5]: > 100 µM | IC50 [3, 6]: 8.95 ± 0.5 µM | PI (IC50 in the dark/IC50 upon light irradiation) ([4]; 10 min): >6.7 | IC50 [4, 7]: > 100 µM | IC50 [4, 8]: 14.8 ± 0.81 µM

(4,4′-Dimethyl-2,2′-bipyridine)bis(4,7-diphenyl-1,10-phenanthroline)ruthenium(II) hexafluorophosphate [Compound 6]
Emission λem [1]: 623 nm | Singlet oxygen quantum yield Φ(1O2), CH3CN Indirect [2]: 0.63 | Singlet oxygen quantum yield Φ(1O2), PBS indirect [2]: 0.03 | PI (IC50 in the dark/IC50 upon light irradiation) ([3]; 10 min): 34.9 | IC50 [3, 5]: 28.8 ± 0.94 µM | IC50 [3, 6]: 0.825 ± 0.03 µM | PI (IC50 in the dark/IC50 upon light irradiation) ([4]; 10 min): 12.37 | IC50 [4, 7]: 23.4 ± 0.53 µM | IC50 [4, 8]: 1.89 ± 0.07 µM

(4,4′-Dibromo-2,2′-bipyridine)bis(1,10-phenanthroline)ruthenium(II) hexafluorophosphate [Compound 3]
Emission λem [1]: 645 nm | Singlet oxygen quantum yield Φ(1O2), CH3CN Indirect [2]: 0.56 | Singlet oxygen quantum yield Φ(1O2), PBS indirect [2]: 0.16 | IC50 [3, 5]: > 100 µM | IC50 [3, 6]: > 100 µM | IC50 [4, 7]: > 100 µM | IC50 [4, 8]: > 100 µM

((E,E′)-4,4′-Bis(N,N′-dimethylaminovinyl)-2,2′-bipyridine)bis(1,10-phenanthroline)ruthenium(II) hexafluorophosphate [Compound 5]
Emission λem [1]: 703 nm | Singlet oxygen quantum yield Φ(1O2), CH3CN Indirect [2]: 0.30 | Singlet oxygen quantum yield Φ(1O2), PBS indirect [2]: 0.21 | IC50 [3, 5]: > 100 µM | IC50 [3, 6]: > 100 µM | IC50 [4, 7]: > 100 µM | IC50 [4, 8]: > 100 µM

Cc1ccnc(-c2cc(C)ccn2)c1.F[P-](F)(F)(F)(F)F.F[P-](F)(F)(F)(F)F.[Ru].c1cnc2c(c1)ccc1cccnc12.c1cnc2c(c1)ccc1cccnc12 [Compound 2, (4,4′-Dimethyl-2,2′-bipyridine)bis(1,10-phenanthroline)ruthenium(II)hexafluorophosphate]
Emission λem [1]: 606 nm | Singlet oxygen quantum yield Φ(1O2), CH3CN Indirect [2]: 0.53 | Singlet oxygen quantum yield Φ(1O2), PBS indirect [2]: 0.34 | IC50 [3, 5]: > 100 µM | IC50 [3, 6]: > 100 µM | IC50 [4, 7]: > 100 µM | IC50 [4, 8]: > 100 µM

F[P-](F)(F)(F)(F)F.F[P-](F)(F)(F)(F)F.[Ru+2].c1ccc(-c2ccccn2)nc1.c1cnc2c(c1)ccc1cccnc12.c1cnc2c(c1)ccc1cccnc12 [Compound 1, (Bipyridine)bis(1,10-phenanthroline)ruthenium(II)hexafluorophosphate]
Emission λem [1]: 600 nm | Singlet oxygen quantum yield Φ(1O2), CH3CN Indirect [2]: 0.54 | Singlet oxygen quantum yield Φ(1O2), PBS indirect [2]: 0.46 | IC50 [3, 5]: > 100 µM | IC50 [3, 6]: > 100 µM | IC50 [4, 7]: > 100 µM | IC50 [4, 8]: > 100 µM
